From ChEMBL document CHEMBL1158065, “Prenylated phenolics from Ganoderma fornicatum” (J Nat Prod, 2006)
≈ marks a conversion by molar mass, not a printed value.

Tested on: HEp-2
Assay: Cytotoxicity against human Hep2 cells by MTT method
Assay type: functional, cell-based

SMILES | IC50
COC1(c2cc(O)ccc2O)C=C(CC/C=C(\C)CCC=C(C)C)C(=O)O1 (configuration not stated) [FORNICIN B] | 15 µg/mL (≈ 40.3 µM)
CC(C)=CCC/C(C)=C/CCC(CC(=O)c1cc(O)ccc1O)C(=O)O (configuration not stated) [FORNICIN C] | 23 µg/mL (≈ 63.8 µM)
